Key:
Experiment in all cases: relative viability (nuclei count vs DMSO), 5 days (fraction); higher = more cells survive
BX 795 + Alpelisib = compound: O=C(NCCCNc1nc(Nc2cccc(NC(=O)N3CCCC3)c2)ncc1I)c1cccs1 [BX 795] + Cc1nc(NC(=O)N2CCC[C@H]2C(N)=O)sc1-c1ccnc(C(C)(C)C(F)(F)F)c1 [Alpelisib] (partner 2 µM)
Outline: (§1)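 Nuclei were stained with Hoechst during a one-step fixation (final 0.05% Triton X-100, 1% formaldehyde, 1 ug/ml Hoechst) carried out 5 days after dosing, then counted on 4× images. The cells, lung cancer lines in 1536-well plates, had been dosed by pin tool the day after seeding with one drug alone or a fixed anchor-drug dose plus five library-drug doses (not always all listed) in √10 steps. Relative viability is the nuclei count in treated wells divided by that in vehicle wells, and each value is the median of duplicate plates.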

BX 795 + Lapatinib = compound: O=C(NCCCNc1nc(Nc2cccc(NC(=O)N3CCCC3)c2)ncc1I)c1cccs1 [BX 795] + CS(=O)(=O)CCNCc1ccc(-c2ccc3ncnc(Nc4ccc(OCc5cccc(F)c5)c(Cl)c4)c3c2)o1 [Lapatinib] (partner 2 µM)
Outline: as §1

BX 795 + Crizotinib = compound: O=C(NCCCNc1nc(Nc2cccc(NC(=O)N3CCCC3)c2)ncc1I)c1cccs1 [BX 795] + C[C@@H](Oc1cc(-c2cnn(C3CCNCC3)c2)cnc1N)c1c(Cl)ccc(F)c1Cl [Crizotinib] (partner 1 µM)
Outline: as §1

BX 795 + Linsitinib = compound: O=C(NCCCNc1nc(Nc2cccc(NC(=O)N3CCCC3)c2)ncc1I)c1cccs1 [BX 795] + C[C@]1(O)C[C@@H](c2nc(-c3ccc4ccc(-c5ccccc5)nc4c3)c3c(N)nccn32)C1 [Linsitinib] (partner 1 µM)
Outline: as §1

BX 795 + AZD7762 = compound: O=C(NCCCNc1nc(Nc2cccc(NC(=O)N3CCCC3)c2)ncc1I)c1cccs1 [BX 795] + NC(=O)Nc1cc(-c2cccc(F)c2)sc1C(=O)N[C@H]1CCCNC1 [AZD7762] (partner 0.2 µM)
Outline: as §1

BX 795 + Bortezomib = compound: O=C(NCCCNc1nc(Nc2cccc(NC(=O)N3CCCC3)c2)ncc1I)c1cccs1 [BX 795] + CC(C)C[C@H](NC(=O)[C@H](Cc1ccccc1)NC(=O)c1cnccn1)B(O)O [Bortezomib] (partner 0.002 µM)
Outline: as §1

BX 795 + Pictilisib = compound: O=C(NCCCNc1nc(Nc2cccc(NC(=O)N3CCCC3)c2)ncc1I)c1cccs1 [BX 795] + CS(=O)(=O)N1CCN(Cc2cc3nc(-c4cccc5[nH]ncc45)nc(N4CCOCC4)c3s2)CC1 [Pictilisib] (partner 1 µM)
Outline: as §1

BX 795 + Olaparib = compound: O=C(NCCCNc1nc(Nc2cccc(NC(=O)N3CCCC3)c2)ncc1I)c1cccs1 [BX 795] + O=C(c1cc(Cc2n[nH]c(=O)c3ccccc23)ccc1F)N1CCN(C(=O)C2CC2)CC1 [Olaparib] (partner 8 µM)
Outline: as §1

BX 795 + Navitoclax = compound: O=C(NCCCNc1nc(Nc2cccc(NC(=O)N3CCCC3)c2)ncc1I)c1cccs1 [BX 795] + CC1(C)CCC(c2ccc(Cl)cc2)=C(CN2CCN(c3ccc(C(=O)NS(=O)(=O)c4ccc(N[C@H](CCN5CCOCC5)CSc5ccccc5)c(S(=O)(=O)C(F)(F)F)c4)cc3)CC2)C1 [Navitoclax] (partner 0.5 µM)
Outline: as §1

BX 795 + Foretinib = compound: O=C(NCCCNc1nc(Nc2cccc(NC(=O)N3CCCC3)c2)ncc1I)c1cccs1 [BX 795] + COc1cc2c(Oc3ccc(NC(=O)C4(C(=O)Nc5ccc(F)cc5)CC4)cc3F)ccnc2cc1OCCCN1CCOCC1 [Foretinib] (partner 0.25 µM)
Outline: as §1

BX 795 = compound: O=C(NCCCNc1nc(Nc2cccc(NC(=O)N3CCCC3)c2)ncc1I)c1cccs1 [BX 795]
Outline: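 Vehicle-anchored 1536-well plates of lung cancer cell lines, held overnight at 37 °C, were pinned with five library-drug doses (not always all listed) spaced by √10. No medium change followed over the next 5 days, after which the cells were fixed, permeabilised and Hoechst-stained together and imaged at 4×. Nuclei were counted with MetaXpress, and viability is treated-well nuclei over vehicle-well nuclei, taken as a median across plates. Plates passed with control CV below 25% and at least one doubling.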

With NCI-H1703 the relative viability (BX 795 + Alpelisib; first compound 0.04 µM) was 0.211, the relative viability (BX 795 + Alpelisib; first compound 0.1265 µM) was 0.286 and the relative viability (BX 795 + Alpelisib; first compound 0.4 µM) was 0.194. For the same cell line, the relative viability (BX 795 + Alpelisib; first compound 1.265 µM) was 0.204, the relative viability (BX 795 + Lapatinib; first compound 0.04 µM) was 0.729 and the relative viability (BX 795 + Lapatinib; first compound 0.1265 µM) was 1.11. It also gave a relative viability (BX 795 + Lapatinib; first compound 0.4 µM) of 0.284, a relative viability (BX 795 + Lapatinib; first compound 1.265 µM) of 0.243 and a relative viability (BX 795 + Crizotinib; first compound 0.04 µM) of 0.317. The relative viability (BX 795 + Crizotinib; first compound 0.1265 µM) was 0.453, the relative viability (BX 795 + Crizotinib; first compound 0.4 µM) was 0.148 and the relative viability (BX 795 + Crizotinib; first compound 1.265 µM) was 0.179. It also gave a relative viability (BX 795 + Linsitinib; first compound 0.1265 µM) of 0.622, a relative viability (BX 795 + Linsitinib; first compound 0.4 µM) of 0.185 and a relative viability (BX 795 + Linsitinib; first compound 1.265 µM) of 0.224. It also gave a relative viability (BX 795 + AZD7762; first compound 0.04 µM) of 0.138, a relative viability (BX 795 + AZD7762; first compound 0.1265 µM) of 0.115 and a relative viability (BX 795 + AZD7762; first compound 0.4 µM) of 0.148. The relative viability (BX 795 + AZD7762; first compound 1.265 µM) was 0.156, the relative viability (BX 795 + Bortezomib; first compound 0.04 µM) was 0.272 and the relative viability (BX 795 + Bortezomib; first compound 0.1265 µM) was 0.223. For the same cell line, the relative viability (BX 795 + Bortezomib; first compound 0.4 µM) was 0.167, the relative viability (BX 795 + Bortezomib; first compound 1.265 µM) was 0.159 and the relative viability (BX 795 + Pictilisib; first compound 0.1265 µM) was 0.201. The relative viability (BX 795 + Pictilisib; first compound 0.4 µM) was 0.222, the relative viability (BX 795 + Pictilisib; first compound 1.265 µM) was 0.185 and the relative viability (BX 795 + Olaparib; first compound 0.1265 µM) was 0.283. The relative viability (BX 795 + Olaparib; first compound 0.4 µM) was 0.229, the relative viability (BX 795 + Olaparib; first compound 1.265 µM) was 0.152 and the relative viability (BX 795 + Navitoclax; first compound 0.04 µM) was 0.8. It also gave a relative viability (BX 795 + Navitoclax; first compound 0.1265 µM) of 1, a relative viability (BX 795 + Navitoclax; first compound 0.4 µM) of 0.22 and a relative viability (BX 795 + Navitoclax; first compound 1.265 µM) of 0.289. For the same cell line, the relative viability (BX 795 + Foretinib; first compound 0.1265 µM) was 0.296, the relative viability (BX 795 + Foretinib; first compound 0.4 µM) was 0.274 and the relative viability (BX 795 + Foretinib; first compound 1.265 µM) was 0.27. For the same cell line, the relative viability (BX 795; 0.04 µM) was 0.469, the relative viability (BX 795; 0.1265 µM) was 0.806 and the relative viability (BX 795; 0.4 µM) was 0.236. It also gave a relative viability (BX 795; 1.265 µM) of 0.298.

From the supplement of paper PMC10307832
